Data: patent EP0311193B1, “Antifungal fermentation product” (priority 1987, dated 1989)
Numbered stars: 1 amine (or outer) side, 2 acyl side, 3 side chain; on linkers, the order of the positions; unused ones are H or OH. Bridge positions count the residues as written; N and C are the ends. Square brackets hold non-standard residues; d marks the D form. Peptide text beside a SMILES is read from it. * marks the point of attachment. Orn(4R-OH,5R-OH) = O=C([C@H](C[C@@H](O)[C@@H](O)N[*:3])N[*:1])[*:2]; hTyr(3S-OH,4S-OH) = N[C@H](C(=O)O)[C@H](O)[C@@H](O)c1ccc(O)cc1; Pro(3S-OH,4S-Me) = C[C@H]1CN[C@H](C(=O)O)[C@H]1O; Gln(3R-OH) = NC(=O)C[C@@H](O)[C@H](N)C(=O)O; Hyp = O=C(O)[C@@H]1C[C@@H](O)CN1; X1 = CCC(C)CC(C)CCCCCCCCC(=O)*

Legend:
[1] = test system: red blood cell; experiment: titration/hemolysis assay (red blood cell lysis); details: highest drug concentration that did not lyse the red blood cells; 25°C, two hours; range tested 0.39 to 400 µg/ml in 5 percent dextrose
Protocol: Concentration of drug in the range of from 0.39 to 400 µg/ml in 5 percent dextrose and a drug free control were employed.
In carrying out the determination, the assay tubes prepared by mixing together 2 milliliters of appropriate drug dilution and 0.5 milliliter of red blood cell suspension were gently shaken to mix the contents and then the tubes were incubated at 25°C for two hours. At the end of this time, the tubes were examined visually for complete or partial red blood cell hemolysis and compared to a drug free control.

[2] = test system: filamentous fungi; experiment: disc diffusion antifungal assay, filamentous fungi; type: cell-based; details: disc diffusion against the listed filamentous fungi; 28°C or 37°C, 24 hours
Protocol: (§1) This may be seen in an antifungal assay employing a disc diffusion method against yeasts and filamentous fungi (molds).
(§2) In the disc diffusion method, seeded assay plates are first prepared in one of the following manners according to the type of organism.
Inocula for filamentous fungi are prepared by scraping the surface of stock plates maintained on potato dextrose agar with a moistened sterile dacron swab. The spores and mycelia are then suspended in 10 milliliters of sterile potato dextrose broth and adjusted to 70 percent transmission at 660 nm.
(§3) For three strains of Candida albicans and one strain of Saccharomyces cerevisiae, sterile saline is employed in place of potato dextrose broth. Assay plates are prepared by dilution the inoculum into appropriate molten agar medium, cooled to 45°C to obtain a final concentration of 4 percent (volume/volume).
(§4) The seeded agar media thus prepared are dispensed into petri dishes for assays (11 milliliters per dish).
(§5) The samples to be tested for production of antifungal agent are applied to 6.2 mm. filter paper discs (25 microliter/disc) and air dried at 24°C. When the sample to be tested is a crude broth, it may be centrifuged prior to application. […] Following incubation, the inhibition zones are measured and recorded. […]

[3] = test system: yeasts; experiment: disc diffusion antifungal assay, yeasts; type: cell-based; details: disc diffusion against the listed yeasts; 28°C or 37°C, 24 hours
Protocol: as §1, §2
Inocula for yeasts are prepared from overnight broth cultures then diluted into potato dextrose […] to a final concentration of either 40 percent or 70 percent transmission at 660 nm.
as §3, §4
as §5, with “application. The discs bearing the material to be tested are then applied employing sterile conditions to the seeded assay plates and the samples rewet with 25 percent sterile aqueous dimethylsulfoxide (25 µl/disc).” for “application.”

[4] = test system: Candida albicans; experiment: agar dilution assay (MIC), expanded panel of strains; type: cell-based; details: against 5 of 34 different strains of Candida albicans, 28°C, 48 hours
Protocol: The activity may be seen in an agar dilution assay employing a yeast nitrogen base dextrose agar medium. In carrying out the assay, Compound I was solubilized in 10 percent dimethyl sulfoxide (DMSO) supplemented with one drop of Tween 20. Twofold dilutions were made with sterile distilled water/10 percent DMSO to obtain final drug concentrations in the agar dilution assay plates ranging from 128 to 0.06 µg/ml.
The yeast cultures, maintained in yeast maltose (YM) broth, were transferred to fresh YM medium and incubated overnight at 35°C with shaking (250 rpm). After incubation, each culture was diluted in sterile saline to yield a final concentration of 3x10⁵ to 3x10⁶ colony forming units (CFU)/ml.
Each prepared plate was inoculated using a Denley Multipoint Inoculator (Denley, Sussex, England) which delivers approximately 0.001 milliliter to the agar surface resulting in inoculation of from 3x10² to 3x10³ CFUs. The plates were incubated at 28°C for 48 hours. The minimum inhibitory concentrations (MICs) were recorded as the lowest concentrations of drug showing no growth or less than three CFU/spot.
In a similar assay, Compound I was tested against an expanded panel of 34 different strains of Candida albicans and 13 different strains of Candida parapsilosis.

[5] = test system: Candida albicans; experiment: mice experimentally infected with Candida albicans; type: in vivo
From the text: These properties point to a new antifungal drug with great potential in the therapy of human mycotic infections.

Row | Structure (SMILES) | minimum lytic concentration (MLC) [1] [µg/mL] | antifungal properties (inhibition zones) [2] | antifungal properties (inhibition zones) [3] | MIC [4] [µg/mL] | eradication of Candida albicans from kidneys ([5]; kidneys of experimentally infected mice) | survival of mice infected with Candida albicans ([5]; mice infected with Candida albicans)
1 | C[C@@H]1[C@H](O)[C@@H](C)/C=C/C=C/C=C/C=C/C=C/C=C/C=C/[C@H](O[C@@H]2O[C@H](C)[C@@H](O)[C@H](N)[C@@H]2O)C[C@@H]2O[C@](O)(C[C@@H](O)C[C@@H](O)[C@H](O)CC[C@@H](O)C[C@@H](O)CC(=O)O[C@H]1C)C[C@H](O)[C@H]2C(=O)O [amphotericin B] | 12.5 | – | – | – | – | –
2 | CCC(C)CC(C)CCCCCCCCC(=O)N[C@H]1C[C@@H](O)[C@@H](O)NC(=O)[C@@H]2[C@@H](O)[C@@H](C)CN2C(=O)[C@H]([C@H](O)CC(N)=O)NC(=O)[C@H]([C@H](O)[C@@H](O)c2ccc(O)cc2)NC(=O)[C@@H]2C[C@@H](O)CN2C(=O)[C@H]([C@@H](C)O)NC1=O (stereo partly drawn) [Compound I, 1-[(4R, 5R) 4,5-dihydroxy N²-(10,12-dimethyl-1-oxotetradecyl)-L-ornithine]-5-(threo-3-hydroxy-L-glutamine)echinocandin B] (X1-[Orn(4R-OH,5R-OH)]T[Hyp][hTyr(3S-OH,4S-OH)][Gln(3R-OH)][Pro(3S-OH,4S-Me)]; lactam 1-C) | – | good antifungal properties | good antifungal properties | > 1 | eradicate Candida albicans from kidneys | significantly prolong the survival
